According to patent publication US20040072848A1, “Methods of treating irritable bowel syndrome and functional dyspepsia” (priority 2003, published 2004):

Tested on: Zymosan-sensitized rats
Assay: Rodent model of zymosan-induced hyperalgesia: visceromotor response to colorectal distention
Type: in vivo, Sprague-Dawley rats
Settings: two doses (time 0 and 16 h), intracolonic zymosan, CRD 80 mm Hg, 20 s, 4 h after zymosan, expressed as percentage of control, baseline = 100%
Protocol: FIG. 1 is a graphical representation of the results of a study conducted in Zymosan-sensitized rats comparing the effect of (E)-4-(1,3-bis(cyclohexylmethyl)-1,2,3,6-tetrahydro-2,6-dioxo-9H-purin-8-yl)cinnamic acid nonaethylene glycol methyl ether ester ([…] and 25 mg/kg) versus vehicle. Results are reported as response to colorectal distention (CRD) (as a percent of control) with increasing dosage of 0, 12.5, and 25 mg/kg of compound (sensitized --▪--) as compared to baseline (--♦--).
Protocol for Evaluation of (E)-4-(1,3-bis(cyclohexylmethyl)-1,2,3,6-tetrahydro-2,6-dioxo-9H-purin-8-yl)cinnamic acid nonaethylene glycol methyl ether ester in a Rodent Model of Zymosan-Induced Hyperalgesia […]
The descending colon and rectum were distended by pressure-controlled inflation of a 7-8-cm-long flexible latex balloon tied around a flexible tube. […] Intracolonic pressure was continuously monitored by the aid of a pressure control device. Response was, quantified as the visceromotor response (VMR), a contraction of the abdominal and hindlimb musculature. EMG activity produced by contraction of the external oblique musculature was quantified using Spike2 software (Cambridge Electronic Designs). Each distension trial lasted 60 seconds, and EMG activity was quantitated in 1-second bins for 20 seconds before distension (baseline), during distention, and 20 seconds after distention. […]

SMILES: COCCOCCOCCOCCOCCOCCOCCOCCOCCOC(=O)/C=C/c1ccc(-c2nc3c(=O)n(CC4CCCCC4)c(=O)n(CC4CCCCC4)c3[nH]2)cc1 [(E)-4-(1,3-bis(cyclohexylmethyl)-1,2,3,6-tetrahydro-2,6-dioxo-9H-purin-8-yl)cinnamic acid nonaethylene glycol methyl ether ester]
- response to colorectal distention (CRD), visceromotor response (12.5 mg/kg oral gavage): decreased the response to colorectal distention down to baseline levels
- response to colorectal distention (CRD), visceromotor response (25 mg/kg oral gavage): decreased the response to colorectal distention down to baseline levels
